Tests used:
[1] = test system: S. pneumoniae D39V; assay: fitness (endpoint OD595 vs no drug) (fraction); higher = more growth
Outline: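 With the first reading as background, OD595 was measured every 30 min for 14 h in 384-well plates kept at 37 °C and inoculated at OD595 0.01. TSB, LB Lennox or CY was the medium. Fitness is the optical density at the transition into stationary phase divided by the robust mean of no-drug control wells, with a cap of 1.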

[2] = test system: B. subtilis 168; assay: Bliss interaction score (quartile over a dose matrix) (fitness difference); higher = more antagonism (negative = synergy)
Outline: (§1)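 Each OD595 reading at entry into stationary phase was scaled to the robust mean of the untreated wells on its plate, with a ceiling of 1. These ratios define fitness, and single-drug fitness was inferred from combinations. The Bliss score compares observed fitness with the product-based expectation and is reported as quartiles across all replicate types, technical, biological and donor/recipient.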

[3] = test system: S. pneumoniae D39V; assay: as above
Outline: as §1

[4] = test system: S. aureus Newman; assay: as above
Outline: as §1

[5] = test system: S. aureus DSM 20231; assay: as above
Outline: as §1
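Throughout, for Bliss interaction score (quartile over a dose matrix): first quartile when negative (synergy) and third quartile when positive (antagonism).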
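Throughout, for fitness (endpoint OD595 vs no drug): OD595 on entry to stationary phase over no-drug wells; at most 1.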

CC1(C)S[C@@H]2[C@H](NC(=O)[C@H](N)c3ccc(O)cc3)C(=O)N2[C@H]1C(=O)O [Amoxicillin] + CCC(C)C1C(=O)NC(=C)C(=O)NC(C(=O)NC(CSCC(C(=O)N1)NC(=O)/C(=C/C)/NC(=O)C(C(C)CC)N)C(=O)NC2C(SCC(NC(=O)CNC(=O)C3CCCN3C2=O)C(=O)NC(CCCCN)C(=O)NC4C(SCC(NC(=O)CNC(=O)C(NC(=O)C(NC(=O)C(NC(=O)CNC4=O)C)CC(C)C)CCSC)C(=O)NC(CC(=O)N)C(=O)NC(CCSC)C(=O)NC(CCCCN)C(=O)NC5C(SCC6C(=O)NC(C(=O)NC(CSC(C(C(=O)N6)NC(=O)C(NC5=O)C)C)C(=O)NC(CO)C(=O)NC(C(C)CC)C(=O)NC(CC7=CN=CN7)C(=O)NC(C(C)C)C(=O)NC(=C)C(=O)NC(CCCCN)C(=O)O)CC8=CN=CN8)C)C)C)CC(C)C [Nisin]
fitness, [1], main component drawn
Details | partner 0.4275 µg/mL | partner 0.855 µg/mL | partner 1.6 µg/mL | partner 1.71 µg/mL | partner 3.2 µg/mL | partner 6.4 µg/mL
first compound 0.0008 µg/mL | ≥ 1 | 0.534 | – | 0.106 | – | –
first compound 0.0015 µg/mL | 0.981 | – | 0.135 | 0.119 | 0.0433 | 0.0441
first compound 0.003 µg/mL | 0.953 | 0.705 | 0.38 | 0.13 | 0.0777 | 0.0249

fitness, [1], one replicate, main component drawn
Details | partner 1.6 µg/mL | partner 3.2 µg/mL | partner 6.4 µg/mL
first compound 0.0008 µg/mL | 0.0458 | 0.094 | 0.0228
first compound 0.006 µg/mL | 0.289 | 0.0544 | 0.0443

main component drawn
Details | Bliss interaction score
[2] | -0.105
[3] | 0.09
[4] | -0.0715
[5] | -0.111

CC1(C)S[C@@H]2[C@H](NC(=O)[C@H](N)c3ccc(O)cc3)C(=O)N2[C@H]1C(=O)O [Amoxicillin] + CC[C@H]1OC(=O)[C@H](C)[C@@H](O[C@H]2C[C@@](C)(OC)[C@@H](O)[C@H](C)O2)[C@H](C)[C@@H](O[C@@H]2O[C@H](C)C[C@H](N(C)C)[C@H]2O)[C@](C)(OC)C[C@@H](C)C(=O)[C@H](C)[C@@H](O)[C@]1(C)O [Clarithromycin]
fitness, [1], one replicate
Details | partner 0.007812 µg/mL | partner 0.01562 µg/mL | partner 0.03125 µg/mL | partner 0.0625 µg/mL | partner 0.125 µg/mL | partner 0.25 µg/mL
first compound 0.0008 µg/mL | 0.921 | 0.834 | 0.67 | 0.748 | 0.666 | 0.364
first compound 0.0015 µg/mL | 0.844 | 0.836 | 0.633 | – | – | –
first compound 0.003 µg/mL | 0.789 | 0.772 | 0.546 | – | – | –
first compound 0.006 µg/mL | – | – | – | 0.436 | 0.303 | 0.149

fitness, [1]
Details | partner 0.0625 µg/mL | partner 0.07 µg/mL | partner 0.125 µg/mL | partner 0.14 µg/mL | partner 0.25 µg/mL | partner 0.28 µg/mL
first compound 0.0008 µg/mL | – | 0.212 | – | 0.157 | – | 0.0725
first compound 0.0015 µg/mL | 0.681 | 0.24 | 0.567 | 0.133 | 0.366 | 0.0875
first compound 0.003 µg/mL | 0.684 | 0.126 | 0.551 | 0.104 | 0.357 | 0.0502

Details | Bliss interaction score
[2] | 0.0461
[3] | 0.177
[4] | -0.0752
[5] | -0.0818

CC1(C)S[C@@H]2[C@H](NC(=O)[C@H](N)c3ccc(O)cc3)C(=O)N2[C@H]1C(=O)O [Amoxicillin] + CN(C)C(=O)C(CCN1CCC(O)(c2ccc(Cl)cc2)CC1)(c1ccccc1)c1ccccc1 [Loperamide]
fitness, [1]
Details | partner 17.14 µg/mL | partner 20 µg/mL | partner 34.28 µg/mL | partner 40 µg/mL | partner 80 µg/mL
first compound 0.0008 µg/mL | 0.993 | – | 0.945 | – | –
first compound 0.0015 µg/mL | 0.977 | ≥ 1 | 0.935 | ≥ 1 | ≥ 1
first compound 0.003 µg/mL | 0.868 | 0.999 | 0.839 | 0.994 | 0.991

fitness, [1], one replicate
Details | first compound 0.0008 µg/mL | first compound 0.0015 µg/mL | first compound 0.003 µg/mL | first compound 0.006 µg/mL
partner 20 µg/mL | ≥ 1 | – | – | 0.442
partner 40 µg/mL | ≥ 1 | – | – | 0.448
partner 68.57 µg/mL | ≥ 1 | 0.934 | 0.894 | –
partner 80 µg/mL | ≥ 1 | – | – | 0.212

Details | Bliss interaction score
[2] | 0.0397
[3] | 0.0558
[4] | 0.0589
[5] | -0.117

CC1(C)S[C@@H]2[C@H](NC(=O)[C@H](N)c3ccc(O)cc3)C(=O)N2[C@H]1C(=O)O [Amoxicillin] + CO[C@H]1/C=C/O[C@@]2(C)Oc3c(C)c(O)c4c(O)c(c(/C=N/N5CCN(C)CC5)c(O)c4c3C2=O)NC(=O)/C(C)=C\C=C\[C@H](C)[C@H](O)[C@@H](C)[C@@H](O)[C@@H](C)[C@H](OC(C)=O)[C@@H]1C [Rifampicin]
[1], partner 0.025 µg/mL
Details | fitness
first compound 0.0008 µg/mL | 0.925
first compound 0.0015 µg/mL | 0.917
first compound 0.003 µg/mL | 0.905

[1], one replicate
Details | fitness
first compound 0.0008 µg/mL, partner 0.2 µg/mL | 0
first compound 0.0015 µg/mL, partner 0.2 µg/mL | 0
first compound 0.003 µg/mL, partner 0.2 µg/mL | 0
first compound 0.006 µg/mL, partner 0.025 µg/mL | 0.468
first compound 0.006 µg/mL, partner 0.05 µg/mL | 0.546
first compound 0.006 µg/mL, partner 0.1 µg/mL | 0.261

Details | Bliss interaction score
[2] | 0.0837
[3] | 0.0783
[4] | 0.073
[5] | 0.133

CC1(C)S[C@@H]2[C@H](NC(=O)[C@H](N)c3ccc(O)cc3)C(=O)N2[C@H]1C(=O)O [Amoxicillin] + C[C@@H](O)[C@H]1C(=O)N2C(C(=O)O)=C(SCCNC=N)C[C@H]12 [Imipenem]
fitness, [1], one replicate
Details | partner 0.005 µg/mL | partner 0.01 µg/mL | partner 0.02 µg/mL
first compound 0.0008 µg/mL | 0.971 | 0.931 | 0.907
first compound 0.006 µg/mL | 0.431 | 0.412 | 0.373

fitness, [1]
Details | partner 0.005 µg/mL | partner 0.0065 µg/mL | partner 0.01 µg/mL | partner 0.013 µg/mL | partner 0.02 µg/mL | partner 0.026 µg/mL
first compound 0.0008 µg/mL | – | 0.934 | – | 0.908 | – | 0.875
first compound 0.0015 µg/mL | 0.928 | 0.927 | 0.934 | 0.919 | 0.907 | 0.859
first compound 0.003 µg/mL | 0.888 | 0.842 | 0.882 | 0.869 | 0.866 | 0.796

Details | Bliss interaction score
[2] | 0.189
[3] | -0.058
[4] | 0.0343
[5] | -0.0413

CC1(C)S[C@@H]2[C@H](NC(=O)[C@H](N)c3ccc(O)cc3)C(=O)N2[C@H]1C(=O)O [Amoxicillin] + C[C@H]1COc2c(N3CCN(C)CC3)c(F)cc3c(=O)c(C(=O)O)cn1c23 [Levofloxacin]
fitness, [1]
Details | partner 0.1725 µg/mL | partner 0.2 µg/mL | partner 0.345 µg/mL | partner 0.4 µg/mL | partner 0.69 µg/mL | partner 0.8 µg/mL
first compound 0.0008 µg/mL | 0.955 | – | 0.911 | – | 0.591 | –
first compound 0.0015 µg/mL | 0.976 | 0.951 | 0.906 | 0.868 | 0.57 | 0.774
first compound 0.003 µg/mL | 0.96 | 0.866 | 0.89 | 0.893 | 0.561 | 0.775

fitness, [1], one replicate
Details | partner 0.2 µg/mL | partner 0.4 µg/mL | partner 0.8 µg/mL
first compound 0.0008 µg/mL | 0.959 | 0.881 | 0.718
first compound 0.006 µg/mL | 0.5 | 0.509 | 0.399

Details | Bliss interaction score
[2] | 0.0559
[3] | 0.142
[4] | -0.0695
[5] | 0.0396

CC1(C)S[C@@H]2[C@H](NC(=O)[C@H](N)c3ccc(O)cc3)C(=O)N2[C@H]1C(=O)O [Amoxicillin] + C[C@H]1c2cccc(O)c2C(=O)C2=C(O)[C@]3(O)C(=O)C(C(N)=O)=C(O)[C@@H](N(C)C)[C@@H]3[C@@H](O)[C@@H]21 [Doxycycline]
[1], one replicate
Details | fitness
first compound 0.0008 µg/mL, partner 0.003875 µg/mL | 0.967
first compound 0.0008 µg/mL, partner 0.00775 µg/mL | 0.976
first compound 0.0015 µg/mL, partner 0.003875 µg/mL | 0.961
first compound 0.0015 µg/mL, partner 0.00775 µg/mL | 0.988
first compound 0.003 µg/mL, partner 0.003875 µg/mL | 0.944
first compound 0.003 µg/mL, partner 0.00775 µg/mL | 0.973
first compound 0.006 µg/mL, partner 0.0155 µg/mL | 0.386
first compound 0.006 µg/mL, partner 0.031 µg/mL | 0.421
first compound 0.006 µg/mL, partner 0.062 µg/mL | 0.451

fitness, [1]
Details | first compound 0.0008 µg/mL | first compound 0.0015 µg/mL | first compound 0.003 µg/mL
partner 0.0155 µg/mL | 0.931 | 0.899 | 0.898
partner 0.031 µg/mL | 0.853 | 0.86 | 0.903
partner 0.062 µg/mL | 0.797 | 0.767 | 0.724

Details | Bliss interaction score
[2] | 0.136
[3] | 0.151
[4] | -0.0414
[5] | -0.0671

Cn1nnc(-c2ccc(-c3ccc(N4C[C@H](CO)OC4=O)cc3F)cn2)n1 [Tedizolid] + COc1cc(Cc2cnc(N)nc2N)cc(OC)c1OC [Trimethoprim]
Details | Bliss interaction score
[2] | 0.0776
[3] | -0.0785
[4] | 0.136
[5] | 0.215

Cn1nnc(-c2ccc(-c3ccc(N4C[C@H](CO)OC4=O)cc3F)cn2)n1 [Tedizolid] + Oc1cc(Cl)ccc1Oc1ccc(Cl)cc1Cl [Triclosan]
Details | Bliss interaction score
[2] | 0.0378
[3] | -0.075
[4] | 0.037
[5] | -0.153

From the supplement of paper PMC10627819
